The source of these data is patent US11439606B2 (priority 2018, dated 2022).

Common to all, as to assay type: in vivo, rat
The subject of data set [1] is type I diabetic rats. As to the kind of experiment: Renal function tests (urea, serum creatinine) in type I diabetic rats treated with DMF. The settings on record: DMF 8 mg/kg daily ip. The method, then: (§1) Controlled test results were performed by, and under the direction of, the inventors, involving four type I diabetic rats, two of which were female and two were male, for the purpose of measuring the effectiveness of administering treatment in accordance with the present invention.

Data set [2] concerns type I diabetic rats. As to the kind of experiment: Glycemia in STZ-induced type I diabetic rats treated with DMF. The settings on record: DMF 8 mg/kg daily ip.
In data set [3] the test system is type I diabetic rats. As to the kind of experiment: Liver function tests (bilirubin, aspartate aminotransferase, gamma glutamyltransferase, alkaline phosphatase) in type I diabetic rats treated with DMF. The settings on record: versus untreated control rats, DMF 8 mg/kg daily ip. The method, then: as §1
Data set [4] concerns type I diabetic rats. As to the kind of experiment: Cholesterol and triglyceride levels in type I diabetic rats treated with DMF. The settings on record: versus untreated rats and known levels in non-diabetic rats; DMF 8 mg/kg daily ip. The procedure: as §1
[5] abbreviates: first rat, STZ-induced diabetes, average glycemia 440 mg % before treatment.

For dimethylformamide [DMF], in data set [1] (versus untreated type I diabetic rats and known levels in non-diabetic rats), the “levels of serum creatinine (FIG. 4)” value was “not only lower than the untreated, type I diabetic control group, but also lower than known levels of serum creatinine in non-diabetic female and male rats”. Also, in data set [1] (versus untreated type I diabetic rats), the “levels of urea (FIG. 4)” value is recorded as “below that of the untreated type I diabetic rats”. Further, the “glycemia level versus untreated rats (FIG. 1)” value in data set [2] (female and male type I diabetic rats) was “remaining significantly below female and male rats not receiving treatment”. In data set [2] (setting [5]), the “blood glucose level after seven days of treatment” value is given as “below 100 mg %” and the “blood glucose level four days after treatment” value is on record as 94 mg %. For the same substance, in data set [2] (second rat, STZ-induced diabetes, average glycemia 526 mg % before treatment), the “blood glucose level after seven days of treatment” value is “below 120 mg %”. Besides, in data set [3], the “liver function (FIG. 5)” value is listed as “either improved or not substantially different”. Moreover, in data set [4], the “cholesterol levels (FIG. 3)” value is “somewhat elevated” and the “triglycerides levels (FIG. 3)” value is “significantly lowered”.
